Entries after “also recorded” stand apart in the source; their conditions may differ. Values belong to the molecule of their own block, whether it stands above or below them.
Legend:
[1] = peripheral injection; ref [3]; cited from earlier work
ghrelin receptor D99A = test: Intracellular Ca2+ concentration assay, D99A; assay type: cell-based, human; conditions: Fig. 4a
Method: (§1) The positions of mutated amino acids and primers are listed in Supplementary Table 2.
(§2) Transfections were performed using the FuGENE HD transfection reagent (Promega). The next day, the transfected cells were collected and plated into 96-well black-wall assay microplates (Corning) at a density of 3 × 10^4 cells/well. After a 1-day incubation, the cells were incubated for 1 h with 100 μl of calcium indicator Fluo-4 from the FLIPR Calcium 5 Assay Kit (Molecular Devices) in Hank’s BSS containing 20 mM HEPES-NaOH (pH7.5) and 2.5 mM probenecid. Fifty-microliter aliquots of samples were tested to induce changes in fluorescence due to increased calcium concentration on a FlexStation3 (Molecular Devices). Maximum [Ca^2+]i changes were determined in quadruplicate (n = 4).

ghrelin receptor F286A = test system: T1, ghrelin receptor F286A; test: Intracellular Ca2+ concentration assay, F286A; assay type: cell-based, human; conditions: Fig. 4f
T1 construct: Full-length human ghrelin receptor was used for the mutagenesis; expressed in transfected cells; host or cells: CHO cells
Method: as §1, §2

ghrelin receptor E124A = test: Intracellular Ca2+ concentration assay, E124A; assay type: cell-based, human; conditions: Fig. 4c
Method: as §1, §2

ghrelin receptor R283A = test: Intracellular Ca2+ concentration assay, R283A; assay type: cell-based, human; conditions: Fig. 4d
Method: as §1, §2

ghrelin receptor R102A = test: Intracellular Ca2+ concentration assay, R102A; assay type: cell-based, human; conditions: Fig. 4b
Method: as §1, §2

[2] = target: ghrelin receptor crystallization construct (hGHSR29-346 (T130K/N188Q)); test: [3H]-Compound 21 saturation binding, crystallization construct; design: species or system human; conditions: Sf9 membranes, 3.125–50 nM radioligand, on ice 1 h, pH7.5; mean ± s.d.
Method: (§3) The homogenate was ultracentrifuged at 100,000×g for 30 min at 4 °C, and the pellet was washed twice with cold homogenization buffer. The protein concentration was determined using BCA Protein Assay (Thermo Fisher). […] Bound [^3H]-Compound 21 was quantified with an AccuFLEX LCS-8000 liquid scintillation counter (Hitachi) after addition of 2.5 ml of Clear-Sol liquid scintillation cocktail (Nacalai Tesque). Data were analyzed by nonlinear curve-fitting using the program GraphPad Prism 5. Binding data are reported as means ± s.d.

[3] = test system: ghrelin receptor WT (hGHSR WT); test: Luciferase assay, basal (constitutive) activity in presence of Compound 21; assay type: cell-based, human; conditions: CHO cells, 10^-10 to 10^-6 M Compound 21, 1 h; n=5–6
Method: Transfections were performed using the FuGENE HD transfection reagent (Promega). The next day, the transfected cells were collected and plated into 96-well white microplates (Corning) at a density of 2.5 × 10^4 cells/well. After a 1-day incubation, the luciferase activities were determined using Dual-Luciferase Reporter Assay System (Promega). […] All firefly luciferase activities were normalized against Renilla luciferase activity. All experiments were performed in sextuplicate.

ghrelin receptor [4] = target: T2, ghrelin receptor (Homo sapiens, UniProt Q92847); test: Crystal structure of bRIL-hGHSR-Fab 7881-Compound 21 complex; conditions: 3.3 Å resolution, PDB 6KO5
T2 construct: expressed in transfected cells; host or cells: HEK293 cells (membrane preparations, transient expression)
T2 sequence (Q92847 whole entry): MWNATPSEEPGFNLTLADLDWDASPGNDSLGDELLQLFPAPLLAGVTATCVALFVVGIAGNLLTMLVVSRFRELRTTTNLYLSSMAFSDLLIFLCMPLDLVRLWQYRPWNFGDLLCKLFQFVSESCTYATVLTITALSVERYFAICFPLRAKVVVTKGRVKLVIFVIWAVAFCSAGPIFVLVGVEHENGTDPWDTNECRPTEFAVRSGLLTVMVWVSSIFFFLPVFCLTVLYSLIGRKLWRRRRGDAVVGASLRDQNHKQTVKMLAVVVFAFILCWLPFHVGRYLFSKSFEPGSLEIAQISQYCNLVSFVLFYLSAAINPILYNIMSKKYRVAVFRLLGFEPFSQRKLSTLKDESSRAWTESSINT
Method: The complex was purified by gel filtration using Superdex 200 Increase 10/300 GL. […] In the mixture, the protein solution:lipid mass ratio was fixed at 2:3 using the twin-syringe mixing method. Crystallization experiments were carried out in 96-well glass sandwich plates (Molecular Dimensions) on an NT8-LCP crystallization robot (Formulatrix) using a 30 nl protein solution cubic phase overlaid with 600 nl precipitant solution, and incubated at 20 °C. The best crystals were obtained from precipitant solution containing 100 mM MES (pH 6.6–7.0), 400 mM potassium acetate, and 36–40% polyethylene glycol (PEG) 300. The crystals were collected within 2 weeks using mesh grid loops (WAKENBTECH) and flash-cooled in liquid nitrogen. Initial crystals were obtained in hanging drops by vapor diffusion at 20 °C from the precipitant solution containing 100 mM bicine (pH 9.0), 100 mM sodium chloride, and 30% PEG550MME.
All diffraction datasets were collected at SPring-8 BL32XU[42] using a micro-focused X-ray beam. Loop-harvested microcrystals were identified using raster scan and analysis by SHIKA[43]. […] The structure was determined by molecular replacement with the program PHASER[47], using the receptor portions of the antagonist-bound orexin receptor (PDB ID: 4S0V), bRIL (PDB ID: 1M6T), and the Fab 7881 antibody (this study, ID: 6KS2) as the search models. […]

ghrelin receptor WT = target: T3, ghrelin receptor WT (Homo sapiens, UniProt Q92847, N188Q); test: [3H]-Compound 21 saturation binding, WT; conditions: HEK293 membranes, on ice 1 h, pH7.5; mean ± s.d., three independent experiments
T3 construct: Full-length human ghrelin receptor was used for the mutagenesis; expressed in transfected cells
T3 sequence (Q92847 whole entry N188Q): as the sequence (Q92847 whole entry) above, with N188Q counted along it
Method: as §3

ghrelin receptor [5] = conditions: cited from earlier work
Excerpt: No other peptide hormone is known to require such an acyl-modification for its activity.

bRIL-hGHSR = test: Protein thermostability assay (CPM); assay type: biochemical, human; conditions: Compound 21 present in both samples
Method: The thermal stability analysis was performed with the thiol-specific fluorochrome N-[4-(7-diethylamino-4-methyl-3-coumarinyl)phenyl]maleimide (CPM)[40]. CPM at 4 mg ml^−1 in DMSO was diluted 40-fold into buffer containing 20 mM HEPES-NaOH (pH 7.5), 100 mM NaCl, 0.01% LMNG, and 0.001% CHS. Purified protein (20 µg) was mixed with diluted CPM and incubated on ice for 15 min in darkness. The reaction mixture (20 µl) was heated in a controlled manner with a ramp rate of 3 °C min^−1 in a MyiQ2 thermal cycler (Bio-Rad). […] Assays were performed over a temperature range starting from 4 °C and ending at 80 °C. The peak in the derivative of the fluorescence signal was used to determine the melting temperature.

Molecule: CCCCCCCC(=O)OC[C@H](NC(=O)[C@H](CO)NC(=O)CN)C(=O)N[C@@H](Cc1ccccc1)C(=O)N[C@@H](CC(C)C)C(=O)N[C@@H](CO)C(=O)N1CCC[C@H]1C(=O)N[C@@H](CCC(=O)O)C(=O)N[C@@H](Cc1c[nH]cn1)C(=O)N[C@@H](CCC(N)=O)C(=O)N[C@@H](CCCNC(=N)N)C(=O)N[C@H](C(=O)N[C@@H](CCC(N)=O)C(=O)N[C@@H](CCC(N)=O)C(=O)N[C@@H](CCCNC(=N)N)C(=O)N[C@@H](CCCCN)C(=O)N[C@@H](CCC(=O)O)C(=O)N[C@@H](CO)C(=O)N[C@@H](CCCCN)C(=O)N[C@@H](CCCCN)C(=O)N1CCC[C@H]1C(=O)N1CCC[C@H]1C(=O)N[C@@H](C)C(=O)N[C@@H](CCCCN)C(=O)N[C@@H](CC(C)C)C(=O)N[C@@H](CCC(N)=O)C(=O)N1CCC[C@H]1C(=O)N[C@@H](CCCNC(=N)N)C(=O)O)C(C)C [Ghrelin]
appetite [1]: induces appetite stimulation following peripheral injection
receptor activity (ghrelin receptor D99A): abolishes the receptor activity
ghrelin-induced receptor activity (ghrelin receptor F286A): only slightly lower than that of the WT ghrelin receptor
ghrelin-induced receptor function (ghrelin receptor E124A): completely abolished ghrelin-induced receptor function
ghrelin-induced receptor function (ghrelin receptor R283A): completely abolished ghrelin-induced receptor function
receptor activity (ghrelin receptor R102A): abolishes the receptor activity

Kd [2]: 17.2 ± 7.1 nM
Molecule: Cc1nc2ccc(Oc3ccc(Br)cc3F)nc2c(=O)n1CC1CCCN(C(C)C)C1 (centres unmarked) [Compound 21]
effect on constitutive activity [3]: no effect on the constitutive activity; also recorded: neutral antagonist
interaction seen in crystal structure (ghrelin receptor [4]): forms a hydrogen bond with R283^6.55; also recorded: π–cation interaction with R102^2.63; also recorded: forms hydrophobic interactions with the F279^6.51, F309^7.39, and F312^7.42; also recorded: three hydrophobic contacts with residues I178^4.60, L181^4.63, and M213^5.39
Kd (ghrelin receptor WT): 4.42 ± 0.76 nM

Molecule: des-acyl ghrelin
activity of ghrelin forms (ghrelin receptor [5]; ref [2],[5]): inactive

Molecule: n-octanoyl ghrelin
potency of ghrelin forms (ghrelin receptor [5]; reference not given): most potent active form

interaction seen in crystal structure (ghrelin receptor [4]): binds to intracellular loop 3 (ICL3)
B1: Fab 7881: Fab fragment antibody specific for the ghrelin receptor, binds ICL3 (antibody, V domains shown)
VH: EVQLQQSGAELVRPGASVKLSCKASGYTFTDYEMHWVKQTPVHGLEWIGAIDPETGGTVYNQKFKGKATLTADISSTTAYMELRSLTSEDSAVYFCISEDIDESKDYWGQGTTLTVSS
VL: DIVMTQSPSSLAVSAGEKVTLSCKSSQSLFNSRTRKNYLAWYQQKPGLSPTLLIYWASTRKSGVPDRFTGSGSGTDFTLTITSVQAEDLAVYYCKQSYYLRTFGGGTKLEIK
increase of Tm (bRIL-hGHSR): about 5 °C

— article PMC7438500 (Nature Communications, 2020)
